Laboratory results published in ChEMBL document CHEMBL5038591, “Identification of a Novel TAR RNA-Binding Protein 2 Modulator with Potential Therapeutic Activity against Hepatocellular Carcinoma” (J Med Chem, 2021).
Activity calls are given as the source filed them. No cut-off for these calls is given here.

Legend:
Mus musculus = test: Downregulation of KIF14 expression in mouse liver at 40 mg/kg measured after 30 days by immunohistochemical staining analysis; format: functional, organism-based; conditions: time 30.0 day
HeLa = test: Antiproliferative activity against human HeLa cells assessed as increase in miR-21 biogenesis level measured after 24 hrs by luciferase assay; format: functional, cell-based
[1] = biological target: T1, Signal transducer and activator of transcription 1-alpha/beta (Homo sapiens) (UniProt P42224); test: Inhibition of STAT1 phosphorylation in human SK-HEP1 cells at 30 uM by Western blot analysis; format: cell-based
T1 sequence (whole entry): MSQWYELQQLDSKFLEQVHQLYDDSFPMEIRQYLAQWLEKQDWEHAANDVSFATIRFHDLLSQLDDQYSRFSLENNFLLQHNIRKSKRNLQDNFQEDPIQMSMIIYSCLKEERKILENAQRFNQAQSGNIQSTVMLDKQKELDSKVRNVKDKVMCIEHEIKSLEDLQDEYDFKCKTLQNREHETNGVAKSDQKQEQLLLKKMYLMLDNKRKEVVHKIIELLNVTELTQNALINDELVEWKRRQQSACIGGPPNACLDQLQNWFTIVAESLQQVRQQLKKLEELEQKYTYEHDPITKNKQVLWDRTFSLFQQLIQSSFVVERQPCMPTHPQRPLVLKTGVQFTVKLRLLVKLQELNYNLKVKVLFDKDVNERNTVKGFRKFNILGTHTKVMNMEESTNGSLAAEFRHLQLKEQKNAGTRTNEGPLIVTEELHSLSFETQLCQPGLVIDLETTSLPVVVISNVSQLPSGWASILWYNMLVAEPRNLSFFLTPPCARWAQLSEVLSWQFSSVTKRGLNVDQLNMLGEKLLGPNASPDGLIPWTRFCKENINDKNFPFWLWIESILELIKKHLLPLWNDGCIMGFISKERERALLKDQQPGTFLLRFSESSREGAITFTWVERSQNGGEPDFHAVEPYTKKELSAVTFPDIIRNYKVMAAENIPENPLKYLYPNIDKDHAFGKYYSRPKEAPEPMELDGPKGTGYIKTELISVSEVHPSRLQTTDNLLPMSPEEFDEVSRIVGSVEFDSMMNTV

[2] = biological target: T2, Inhibitor of nuclear factor kappa-B kinase subunit beta (Homo sapiens) (UniProt O14920); test: Inhibition of IkappaB phosphorylation in human SK-HEP1 cells at 30 uM by Western blot analysis; format: cell-based
T2 sequence (whole entry): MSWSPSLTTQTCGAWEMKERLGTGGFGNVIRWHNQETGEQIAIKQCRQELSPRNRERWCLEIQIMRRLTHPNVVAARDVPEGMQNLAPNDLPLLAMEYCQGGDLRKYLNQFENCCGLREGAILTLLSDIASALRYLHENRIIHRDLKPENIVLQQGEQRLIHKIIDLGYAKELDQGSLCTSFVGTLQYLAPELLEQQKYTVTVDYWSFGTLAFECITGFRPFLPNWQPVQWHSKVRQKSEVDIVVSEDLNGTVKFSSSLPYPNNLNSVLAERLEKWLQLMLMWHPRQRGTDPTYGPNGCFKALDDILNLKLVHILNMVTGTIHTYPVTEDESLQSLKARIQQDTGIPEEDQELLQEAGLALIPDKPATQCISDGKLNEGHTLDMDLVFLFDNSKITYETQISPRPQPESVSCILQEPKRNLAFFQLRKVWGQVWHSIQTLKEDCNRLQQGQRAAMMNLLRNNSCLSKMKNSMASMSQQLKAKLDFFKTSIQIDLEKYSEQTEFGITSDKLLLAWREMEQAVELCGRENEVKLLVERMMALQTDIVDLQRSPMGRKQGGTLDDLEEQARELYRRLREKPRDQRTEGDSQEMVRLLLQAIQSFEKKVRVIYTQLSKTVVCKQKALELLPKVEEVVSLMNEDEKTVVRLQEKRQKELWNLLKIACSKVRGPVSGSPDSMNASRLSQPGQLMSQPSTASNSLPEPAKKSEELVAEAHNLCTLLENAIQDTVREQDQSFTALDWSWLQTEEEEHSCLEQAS

IC50 (HeLa): 17.2 µM | inhibition [1]: inactive | inhibition [2]: Active
Structure (SMILES): COc1cc2c(c(O)c1OC)-c1c(cc3c(c1OC)OCO3)C[C@H](C)[C@H](C)C2
Activity (Mus musculus): Active
